Measured values published in patent US8258114B2, “Modulation of glucose-6-phosphatase translocase expression” (Isis Pharmaceuticals, Inc., priority 2004, dated 2012).

Columns and labels:
Format in all cases: in vivo, rat
[1] = tested on: catalytic subunit of glucose-6-phosphatase (G6PC) mRNA; experiment: Reduction of catalytic subunit of glucose-6-phosphatase (G6PC) mRNA in liver or kidney of ZDF rats (Table 15); conditions: alone or with rosiglitazone 3 mg/kg daily
Protocol: (§1) Saline-injected animals served as a control treatment group.
At the end of the treatment period, animals were sacrificed and target reduction in liver and kidney were measured by real-time PCR as described in other examples herein. Also measured were reductions in the catalytic subunit of glucose-6-phosphatase (G6PC) using a primer-probe set designed to hybridize to that mRNA. For example, the following primer-probe set was designed to hybridize to rat glucose-6-phosphatase translocase sequences cited in Table 1:
Results for each treatment group are shown in Table 15 as the average percent reduction in glucose-6-phosphatase translocase levels or in G6PC as compared to saline treated control.

aged Zucker fa/fa rats [2] = experiment: Oral glucose tolerance test in ZDF rats (Table 17); conditions: alone or with Rosi
Protocol: as §1
To further evaluate the effects of ISIS 366228 alone or in combination with rosiglitazone, oral glucose tolerance tests were performed during the third week of treatment. To provide a baseline glucose level, fasted blood glucose levels were measured before the challenge. Glucose was administered by oral gavage via an 18 gauge gavage needle at a dose of 1 g/kg. Plasma glucose levels were measured for 15, 30, 60, 90, and 120 minutes post-challenge, using a glucose analyzer (for example, an Ascencia Glucometer Elite XL, Bayer, Tarrytown, N.Y.).

[3] = Plasma glucose, cholesterol and triglycerides in normal Sprague-Dawley rats (Table 14); design: plasma GLUCOSE WK 0 / plasma GLUCOSE WK 3: unit not given beside the values
Protocol: Each treatment group was comprised of 4 animals.
To further assess the physiological effects resulting from inhibition of target mRNA, the rats were evaluated at the beginning (Wk 0) and at the end (Wk 3) of the treatment period for plasma glucose, plasma cholesterol, and plasma triglyceride levels. Triglycerides and cholesterol were measured by routine clinical analyzer instruments (e.g. Olympus Clinical Analyzer, Melville, N.Y.). Glucose levels were measured using a glucose analyzer, for example a YSI glucose analyzer (YSI Scientific, Yellow Springs, Ohio). Results are presented in Table 14 as the average level of plasma glucose, plasma cholesterol (CHOL), or plasma triglycerides (TRIG) measured per treatment group.

[4] = Plasma glucose levels of ZDF rats, alone or in combination with rosiglitazone (Table 16); conditions: alone or with Rosi
Protocol: as §1
(§2) Plasma glucose levels were evaluated at the beginning of the study (Wk 0), during the first week of treatment (Wk 1), during the third week of treatment (Wk 3), and during the fifth week of treatment (Wk 5).

aged Zucker fa/fa rats [5] = experiment: as above
Protocol: as §1, §2

[6] = Plasma lipids (cholesterol, triglycerides, free fatty acids) in ZDF rats (Table 21)
Protocol: as §1
To further assess the physiological effects resulting from inhibition of target mRNA with antisense oligonucleotide alone or in combination with rosiglitazone, the rats were evaluated throughout the treatment period for plasma free fatty acids, plasma cholesterol, and plasma triglyceride levels. Free fatty acids, triglycerides and cholesterol were measured by routine clinical analyzer instruments (e.g. Olympus Clinical Analyzer, Melville, N.Y.). Glucose levels were measured using a glucose analyzer, for example a YSI glucose analyzer (YSI Scientific, Yellow Springs, Ohio).

[7] = ISIS 366228 12.5 mg/kg twice weekly
[8] = ISIS 366228 25 mg/kg twice weekly

GTGCTTGGCGATGGTACTGA (chemistry not given here) [ISIS 366228]
% Inhibition of G6PC, Kidney [1, 7]: 17%
% Inhibition of G6PC, Liver [1, 7]: 39%
% Inhibition of G6PC, Kidney [1, 8]: 33%
% Inhibition of G6PC, Liver [1, 8]: 0%
plasma glucose, OGTT (aged Zucker fa/fa rats [2]; week 3, ISIS 366228 12.5 mg/kg, 0 min (fasted)): 317 mg/dL
plasma glucose, OGTT (aged Zucker fa/fa rats [2]; week 3, ISIS 366228 12.5 mg/kg, 15 min): 418 mg/dL
plasma glucose, OGTT (aged Zucker fa/fa rats [2]; week 3, ISIS 366228 12.5 mg/kg, 30 min): 553 mg/dL
plasma glucose, OGTT (aged Zucker fa/fa rats [2]; week 3, ISIS 366228 12.5 mg/kg, 60 min): 485 mg/dL
plasma glucose, OGTT (aged Zucker fa/fa rats [2]; week 3, ISIS 366228 12.5 mg/kg, 90 min): 441 mg/dL
plasma glucose, OGTT (aged Zucker fa/fa rats [2]; week 3, ISIS 366228 12.5 mg/kg, 120 min): 444 mg/dL
plasma glucose, OGTT (aged Zucker fa/fa rats [2]; week 3, ISIS 366228 25 mg/kg, 0 min (fasted)): 303 mg/dL
plasma glucose, OGTT (aged Zucker fa/fa rats [2]; week 3, ISIS 366228 25 mg/kg, 15 min): 453 mg/dL
plasma glucose, OGTT (aged Zucker fa/fa rats [2]; week 3, ISIS 366228 25 mg/kg, 30 min): 540 mg/dL
plasma glucose, OGTT (aged Zucker fa/fa rats [2]; week 3, ISIS 366228 25 mg/kg, 60 min): 461 mg/dL
plasma glucose, OGTT (aged Zucker fa/fa rats [2]; week 3, ISIS 366228 25 mg/kg, 90 min): 427 mg/dL
plasma glucose, OGTT (aged Zucker fa/fa rats [2]; week 3, ISIS 366228 25 mg/kg, 120 min): 408 mg/dL
plasma cholesterol (CHOL) WK 3 ([3]; 12.5 mg/kg twice weekly, saline 58): 49
plasma triglycerides (TRIG) WK 0 ([3]; 12.5 mg/kg twice weekly, saline 69): 54
plasma cholesterol (CHOL) WK 0 ([3]; 12.5 mg/kg twice weekly, saline 74): 70
plasma GLUCOSE WK 0 ([3]; 12.5 mg/kg twice weekly, saline 135): 147
plasma GLUCOSE WK 3 ([3]; 12.5 mg/kg twice weekly, saline 139): 146
plasma triglycerides (TRIG) WK 3 ([3]; 12.5 mg/kg twice weekly, saline 140): 84
plasma GLUCOSE WK 0 ([3]; 25 mg/kg twice weekly): 148
plasma GLUCOSE WK 3 ([3]; 25 mg/kg twice weekly): 149
plasma cholesterol (CHOL) WK 0 ([3]; 25 mg/kg twice weekly): 93
plasma cholesterol (CHOL) WK 3 ([3]; 25 mg/kg twice weekly): 70
plasma triglycerides (TRIG) WK 0 ([3]; 25 mg/kg twice weekly): 56
plasma triglycerides (TRIG) WK 3 ([3]; 25 mg/kg twice weekly): 76
plasma GLUCOSE WK 0 ([3]; 50 mg/kg twice weekly): 137
plasma GLUCOSE WK 3 ([3]; 50 mg/kg twice weekly): 139
plasma cholesterol (CHOL) WK 0 ([3]; 50 mg/kg twice weekly): 76
plasma cholesterol (CHOL) WK 3 ([3]; 50 mg/kg twice weekly): 54
plasma triglycerides (TRIG) WK 0 ([3]; 50 mg/kg twice weekly): 65
plasma triglycerides (TRIG) WK 3 ([3]; 50 mg/kg twice weekly): 64
plasma triglycerides (in words) ([3]; 12.5 to 50 mg/kg, three weeks): prevented the increases in triglycerides observed in saline-treated animals
Plasma glucose ([4]; ISIS 366228 12.5 mg/kg, Wk 0, saline 571): 570 mg/dL
Plasma glucose ([4]; ISIS 366228 12.5 mg/kg, Wk 1, saline 549): 549 mg/dL
Plasma glucose ([4]; ISIS 366228 12.5 mg/kg, Wk 3, saline 552): 547 mg/dL
Plasma glucose ([4]; ISIS 366228 12.5 mg/kg, Wk 5, saline 536): 532 mg/dL
Plasma glucose ([4]; ISIS 366228 25 mg/kg, Wk 0): 569 mg/dL
Plasma glucose ([4]; ISIS 366228 25 mg/kg, Wk 1): 542 mg/dL
Plasma glucose ([4]; ISIS 366228 25 mg/kg, Wk 3): 507 mg/dL
Plasma glucose ([4]; ISIS 366228 25 mg/kg, Wk 5): 488 mg/dL
plasma glucose over the course of the study (in words) (aged Zucker fa/fa rats [5]): caused reductions in plasma glucose
plasma cholesterol (CHOL) ([6]; Wk 0, ISIS 366228 12.5 mg/kg): 207 mg/dL
plasma triglycerides (TRIG) ([6]; Wk 0, ISIS 366228 12.5 mg/kg): 460 mg/dL
plasma cholesterol (CHOL) ([6]; Wk 0, ISIS 366228 25 mg/kg): 210 mg/dL
plasma triglycerides (TRIG) ([6]; Wk 0, ISIS 366228 25 mg/kg): 470 mg/dL
plasma cholesterol (CHOL) ([6]; Wk 1, ISIS 366228 12.5 mg/kg): 201 mg/dL
plasma triglycerides (TRIG) ([6]; Wk 1, ISIS 366228 12.5 mg/kg): 379 mg/dL
plasma cholesterol (CHOL) ([6]; Wk 1, ISIS 366228 25 mg/kg): 196 mg/dL
plasma triglycerides (TRIG) ([6]; Wk 1, ISIS 366228 25 mg/kg): 307 mg/dL
plasma cholesterol (CHOL) ([6]; Wk 3, ISIS 366228 12.5 mg/kg): 196 mg/dL
plasma triglycerides (TRIG) ([6]; Wk 3, ISIS 366228 12.5 mg/kg): 416 mg/dL
plasma cholesterol (CHOL) ([6]; Wk 3, ISIS 366228 25 mg/kg): 206 mg/dL
plasma triglycerides (TRIG) ([6]; Wk 3, ISIS 366228 25 mg/kg): 354 mg/dL
plasma cholesterol (CHOL) ([6]; Wk 5, ISIS 366228 12.5 mg/kg): 176 mg/dL
plasma triglycerides (TRIG) ([6]; Wk 5, ISIS 366228 12.5 mg/kg): 478 mg/dL
plasma cholesterol (CHOL) ([6]; Wk 5, ISIS 366228 25 mg/kg): 183 mg/dL
plasma triglycerides (TRIG) ([6]; Wk 5, ISIS 366228 25 mg/kg): 472 mg/dL
plasma cholesterol (in words) ([6]; compared with saline or rosiglitazone alone): prevented increases in plasma cholesterol
